The structures appear in SMILES notation.

One experiment deals with T1, ENPP3 (Homo sapiens, UniProt O14638).
T1 sequence (O14638 1-875): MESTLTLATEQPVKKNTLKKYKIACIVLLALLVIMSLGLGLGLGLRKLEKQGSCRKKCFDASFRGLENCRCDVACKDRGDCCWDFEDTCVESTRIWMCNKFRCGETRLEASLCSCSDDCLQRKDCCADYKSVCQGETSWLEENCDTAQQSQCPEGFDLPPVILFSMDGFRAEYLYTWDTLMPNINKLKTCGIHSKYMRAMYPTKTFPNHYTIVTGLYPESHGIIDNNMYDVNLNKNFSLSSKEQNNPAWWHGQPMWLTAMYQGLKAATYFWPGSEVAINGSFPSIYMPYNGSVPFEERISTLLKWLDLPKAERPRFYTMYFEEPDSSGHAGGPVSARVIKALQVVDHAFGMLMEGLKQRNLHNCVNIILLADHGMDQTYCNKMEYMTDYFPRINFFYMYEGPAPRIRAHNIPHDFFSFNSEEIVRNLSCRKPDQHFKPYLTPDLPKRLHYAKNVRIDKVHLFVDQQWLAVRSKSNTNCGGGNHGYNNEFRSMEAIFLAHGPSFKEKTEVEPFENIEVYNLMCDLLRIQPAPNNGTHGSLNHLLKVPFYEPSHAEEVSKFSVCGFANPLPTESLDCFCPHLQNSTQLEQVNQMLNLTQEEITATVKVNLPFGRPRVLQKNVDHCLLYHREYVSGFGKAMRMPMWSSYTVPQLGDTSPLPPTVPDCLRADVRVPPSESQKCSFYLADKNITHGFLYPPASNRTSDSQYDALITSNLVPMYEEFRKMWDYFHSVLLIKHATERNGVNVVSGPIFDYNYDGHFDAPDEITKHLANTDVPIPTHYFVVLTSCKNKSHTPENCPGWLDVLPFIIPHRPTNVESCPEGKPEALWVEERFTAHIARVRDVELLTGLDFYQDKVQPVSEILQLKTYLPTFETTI
Nature of the experiment: ENPP3 Km ATP assay. It is filed as biochemical. The following applies: ATP at Km.

A further experiment deals with T2, human ENPP1 (Homo sapiens, UniProt P22413).
T2 construct: made in house
T2 sequence (P22413 1-925): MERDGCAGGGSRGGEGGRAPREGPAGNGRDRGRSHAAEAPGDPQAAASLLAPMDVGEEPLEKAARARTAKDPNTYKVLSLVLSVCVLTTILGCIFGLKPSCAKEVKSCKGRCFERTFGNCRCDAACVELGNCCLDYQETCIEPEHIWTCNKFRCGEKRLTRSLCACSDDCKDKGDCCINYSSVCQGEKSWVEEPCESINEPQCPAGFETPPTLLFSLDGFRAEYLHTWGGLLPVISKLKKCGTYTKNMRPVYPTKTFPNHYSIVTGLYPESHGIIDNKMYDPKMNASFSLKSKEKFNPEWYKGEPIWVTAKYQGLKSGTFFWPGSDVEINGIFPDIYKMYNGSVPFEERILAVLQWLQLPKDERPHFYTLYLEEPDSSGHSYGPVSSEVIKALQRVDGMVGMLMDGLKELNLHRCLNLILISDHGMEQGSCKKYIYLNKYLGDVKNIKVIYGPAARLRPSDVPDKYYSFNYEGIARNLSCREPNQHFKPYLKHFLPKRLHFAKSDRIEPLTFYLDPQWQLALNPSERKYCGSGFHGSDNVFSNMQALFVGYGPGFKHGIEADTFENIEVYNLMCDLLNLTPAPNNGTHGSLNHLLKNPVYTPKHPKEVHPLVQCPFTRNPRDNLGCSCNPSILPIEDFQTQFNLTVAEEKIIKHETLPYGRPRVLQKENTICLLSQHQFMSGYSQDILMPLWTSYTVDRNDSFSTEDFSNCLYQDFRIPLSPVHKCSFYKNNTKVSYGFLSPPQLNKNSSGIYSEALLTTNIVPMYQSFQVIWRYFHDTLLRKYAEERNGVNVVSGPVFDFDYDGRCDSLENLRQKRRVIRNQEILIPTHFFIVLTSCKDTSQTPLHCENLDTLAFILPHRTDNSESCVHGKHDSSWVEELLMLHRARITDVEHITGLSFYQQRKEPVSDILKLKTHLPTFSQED
The experiment can be described thus: ENPP1 assay with ATP substrate (Transcreener AMP2/GMP2 TR-FRET). Format: biochemical. The settings on record: 1 hour at room temperature. Put shortly: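 Reaction ran 1 h at room temperature in pH 7.5 Tris with MgCl2, TCEP, Tween 20 and 1% DMSO. ATP was added as a 300 nM stock and enzyme as an 8.5 μM stock. After EDTA stop, AMP was read by TR-FRET tracer displacement. Percent inhibition used enzyme/no-enzyme controls; IC50 was fitted with a variable slope.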
On the technique in general: TR-FRET usually uses a lanthanide donor and a delayed reading to cut background.

`Cn1ncc2c(NCc3ccc(S(N)(=O)=O)cc3)cnnc21` [Example 2.55, 4-(((1-Methyl-1H-pyrazolo[3,4-c]pyridazin-4-yl)amino)methyl)benzenesulfonamide]: the concentration for half-maximal inhibition (IC50) is 1 to 20 µM on ENPP3 and 0.1 to 1 µM at human ENPP1.
As for `Cn1ncc2c(NCc3ccc(S(N)(=O)=O)cc3)nncc21` [Example 2.56, 4-(((1-Methyl-1H-pyrazolo[3,4-d]pyridazin-4-yl)amino)methyl)benzenesulfonamide], the IC50 on ENPP3 and on human ENPP1 was above 20 µM throughout.
On to `Cc1noc2ncnc(N3CCC(NCCCc4ccc(F)cc4)CC3)c12` [Example 2.57, N-(3-(4-Fluorophenyl)propyl)-1-(3-methylisoxazolo[5,4-d]pyrimidin-4-yl)piperidin-4-amine], for which the IC50 on ENPP3 and on human ENPP1 was above 20 µM each time.
Take `Cn1nnc2c(NCc3ccc(S(N)(=O)=O)cc3)ncnc21` [Example 2.58, 4-(((3-Methyl-3H-[1,2,3]triazolo[4,5-d]pyrimidin-7-yl)amino)methyl)benzenesulfonamide]: the concentration for half-maximal inhibition (IC50) against ENPP3 and at human ENPP1 was 1 to 20 µM in each case.
For the molecule `Cc1noc2ncnc(NCc3ccc(S(N)(=O)=O)cc3)c12` [Example 2.59, 4-(((3-Methylisoxazolo[5,4-d]pyrimidin-4-yl)amino)methyl)benzenesulfonamide], the IC50 against ENPP3 and against human ENPP1 was 1 to 20 µM in each case.
Turning to `Cn1ncc2c(NCc3ccc(S(N)(=O)=O)cc3)ccnc21` [Example 2.60, 4-(((1-Methyl-1H-pyrazolo[3,4-b]pyridin-4-yl)amino)methyl)benzenesulfonamide], the half-maximal inhibitory concentration (IC50) against ENPP3 was 0.1 to 1 µM; against human ENPP1, below 0.1 µM.
Turning to `Cn1ncc2c(NCc3ccc(S(N)(=O)=O)cc3Cl)ccnc21` [Example 2.61, 3-Chloro-4-(((1-methyl-1H-pyrazolo[3,4-b]pyridin-4-yl)amino)methyl)benzenesulfonamide], the half-inhibitory concentration (IC50) against ENPP3 and at human ENPP1 was 0.1 to 1 µM in each case.
As for `Cn1ncc2c(NCc3ccc(S(N)(=O)=O)c(C(F)(F)F)c3)ccnc21` [Example 2.62, 4-(((1-Methyl-1H-pyrazolo[3,4-b]pyridin-4-yl)amino)methyl)-2-(trifluoromethyl)-benzenesulfonamide], the values for the 50% inhibitory concentration (IC50) on ENPP3 and on human ENPP1 were 0.1 to 1 µM and below 0.1 µM, respectively.
The corresponding values for `COc1cc(S(N)(=O)=O)ccc1CNc1ccnc2c1cnn2C` [Example 2.63, 3-Methoxy-4-(((1-methyl-1H-pyrazolo[3,4-b]pyridin-4-yl)amino)methyl)benzenesulfonamide] are 1 to 20 µM and 0.1 to 1 µM.
With `Cn1ncc2c(NCc3ccc(S(N)(=O)=O)cc3F)ccnc21` [Example 2.64, 3-Fluoro-4-(((1-methyl-1H-pyrazolo[3,4-b]pyridin-4-yl)amino)methyl)benzenesulfonamide], the half-maximal inhibitory concentration (IC50) was 0.1 to 1 µM against ENPP3 and below 0.1 µM against human ENPP1.
The matching figures for `COc1cc(CNc2ccnc3c2cnn3C)ccc1S(N)(=O)=O` [Example 2.65, 2-Methoxy-4-(((1-methyl-1H-pyrazolo[3,4-b]pyridin-4-yl)amino)methyl)-benzenesulfonamide]: above 20 µM and 1 to 20 µM.
With `Cn1ncc2c(NCc3ccc(S(N)(=O)=O)cc3)nccc21` [Example 2.66, 4-(((1-Methyl-1H-pyrazolo[4,3-c]pyridin-4-yl)amino)methyl)benzenesulfonamide], the IC50 on ENPP3 and on human ENPP1 was 1 to 20 µM in each case.
As for `Cn1ncc2c(NCc3ccc(S(N)(=O)=O)c(F)c3)ccnc21` [Example 2.67, 2-Fluoro-4-(((1-methyl-1H-pyrazolo[3,4-b]pyridin-4-yl)amino)methyl)benzenesulfonamide], the IC50 is 0.1 to 1 µM on ENPP3 and below 0.1 µM on human ENPP1.
The corresponding values for `Cn1ncc2c(NCc3ccc(S(N)(=O)=O)c(Cl)c3)ccnc21` [Example 2.68, 2-Chloro-4-(((1-methyl-1H-pyrazolo[3,4-b]pyridin-4-yl)amino)methyl)-benzenesulfonamide] are 1 to 20 µM and 0.1 to 1 µM.
The matching figures for `Cc1cc(S(N)(=O)=O)ccc1CNc1ccnc2c1cnn2C` [Example 2.69, 3-Methyl-4-(((1-methyl-1H-pyrazolo[3,4-b]pyridin-4-yl)amino)methyl)-benzenesulfonamide]: 1 to 20 µM and 0.1 to 1 µM.
With `Cc1cc(CNc2ccnc3c2cnn3C)ccc1S(N)(=O)=O` [Example 2.70, 2-Methyl-4-(((1-methyl-1H-pyrazolo[3,4-b]pyridin-4-yl)amino)methyl)-benzenesulfonamide], the values for the 50% inhibitory concentration (IC50) against ENPP3 and against human ENPP1 were 1 to 20 µM and 0.1 to 1 µM, respectively.
The matching figures for `Cn1ncc2c(NCc3ccc(S(N)(=O)=O)cn3)ccnc21` [Example 2.71, 6-(((1-Methyl-1H-pyrazolo[3,4-b]pyridin-4-yl)amino)methyl)pyridine-3-sulfonamide]: 0.1 to 1 µM and below 0.1 µM.
The corresponding values for `Cn1ncc2c(NCc3ccc(S(N)(=O)=O)nc3)ccnc21` [Example 2.72, 5-(((1-Methyl-1H-pyrazolo[3,4-b]pyridin-4-yl)amino)methyl)pyridine-2-sulfonamide] are 0.1 to 1 µM and below 0.1 µM.
Consider `Cn1ncc2c(NCc3ccc(S(N)(=O)=O)cc3)cc(Cl)nc21` [Example 2.73, 4-(((6-Chloro-1-methyl-1H-pyrazolo[3,4-b]pyridin-4-yl)amino)methyl)benzenesulfonamide], for which the concentration for half-maximal inhibition (IC50) against ENPP3 and against human ENPP1 was below 0.1 µM each time.
Turning to `CC(C)Nc1cc(NCc2ccc(S(N)(=O)=O)cc2)c2cnn(C)c2n1` [Example 2.74, 4-(((6-(Isopropylamino)-1-methyl-1H-pyrazolo[3,4-b]pyridin-4-yl)amino)methyl)benzenesulfonamide], the half-inhibitory concentration (IC50) against ENPP3 and on human ENPP1 was 1 to 20 µM in each case.
Take `CCNc1cc(NCc2ccc(S(N)(=O)=O)cc2)c2cnn(C)c2n1` [Example 2.75, 4-(((6-(Ethylamino)-1-methyl-1H-pyrazolo[3,4-b]pyridin-4-yl)amino)methyl)-benzenesulfonamide]: the IC50 was in the range of 1 to 20 µM at ENPP3 and 0.1 to 1 µM on human ENPP1.
The corresponding values for `CNc1cc(NCc2ccc(S(N)(=O)=O)cc2)c2cnn(C)c2n1` [Example 2.76, 4-(((1-Methyl-6-(methylamino)-1H-pyrazolo[3,4-b]pyridin-4-yl)amino)methyl)-benzenesulfonamide] are 0.1 to 1 µM and 1 to 20 µM.
The matching figures for `Cn1ncc2c(NCc3ccc(S(N)(=O)=O)cc3)cc(N3CCCC3)nc21` [Example 2.77, 4-(((1-Methyl-6-(pyrrolidin-1-yl)-1H-pyrazolo[3,4-b]pyridin-4-yl)amino)methyl)-benzenesulfonamide]: 0.1 to 1 µM and 1 to 20 µM.
The corresponding values for `Cn1ncc2c(NCc3ccc(S(N)(=O)=O)cc3)cc(N)nc21` [Example 2.78, 4-(((6-Amino-1-methyl-1H-pyrazolo[3,4-b]pyridin-4-yl)amino)methyl)-benzenesulfonamide] are 0.1 to 1 µM and 0.1 to 1 µM.

The term IC50 denotes the concentration that gives 50% inhibition. Higher therefore signals weaker potency.

Values taken from patent US12643910B2, “Substituted pyrazolo[3,4-b]pyridines as ectonucleotide pyrophosphatase/phosphodiesterase 1 (ENPP1) modulators” (SANFORD BURNHAM PREBYS MEDICAL DISCOVERY INSTITUTE, priority 2019, dated 2026).
